In brackets after ≈: the same amount, converted by molar mass.

Assay [1] deals with Staphylococcus aureus ATCC 6538. Description: MIC by agar dilution. Format: cell-based. Conditions: ATCC6538, 37 °C, 20 h, read-out: Minimum inhibitory concentration (MIC). As to the method: (§1) The MICs of the synthesized compound were determined by agar dilution method according to the Clinical Laboratory and Standards Institute Guidelines (CLSI, 2015). Briefly, the tested strains were incubated overnight in tryptic soy broth (TSB) (Oxoid, United Kingdom) and then diluted in Muller–Hinton (MH) broth (Oxoid, United Kingdom) to turbidity approximating to the equivalent of 0.5 McFarland standard. The suspensions were further diluted with sterile saline (1:10) and standardized inoculums (approximately 10^4 CFU per spot) were spotted on the surfaces of MH agar (Oxoid, United Kingdom) plates containing different concentrations of tested compounds and a control plate. The MICs were the lowest concentrations that inhibit growth on the plates after incubation at 37 °C for 20 h.
A general note: Agar dilution tests growth on a series of plates holding different concentrations.

Assay [2] deals with Staphylococcus epidermidis ATCC 12228. Description: MIC by agar dilution. Conditions: ATCC12228, 37 °C, 20 h, read-out: Minimum inhibitory concentration (MIC). It is filed as cell-based. How it is done: as §1
In assay [3] the test system is Salmonella typhimurium ATCC 14028. Description: MIC by agar dilution. Format: cell-based. Conditions: Salmonella enterica, 37 °C, 20 h, read-out: Minimum inhibitory concentration (MIC). How it is done: as §1
Assay [4] has as its system Escherichia coli ATCC 10536. Briefly: MIC by agar dilution. Format: cell-based. Conditions: ATCC10536, 37 °C, 20 h, read-out: Minimum inhibitory concentration (MIC). As to the method: as §1
Assay [5] deals with Micrococcus spp. ATCC 10240. Description: MIC by agar dilution. It is filed as cell-based. Conditions: ATCC10240, 37 °C, 20 h, read-out: Minimum inhibitory concentration (MIC). How it is done: as §1
Assay [6] has as its system Klebsiella pneumoniae ATCC 27736. Briefly: MIC by agar dilution. Conditions: ATCC27736, 37 °C, 20 h, read-out: Minimum inhibitory concentration (MIC). It is filed as cell-based. As to the method:
as §1

Assay [7] concerns S. aureus. Briefly: Assay of protease production (casein substrate). It is filed as cell-based, Staphylococcus aureus. As to conditions: sub-MIC. As to the method:
The effect of compounds 5, 7 and 10 on the production of protease was evaluated using casein substrate as described earlier. Briefly, overnight cultures of P. aeruginosa and S. aureus were cultivated in LB broth in the presence or absence of compounds 5, 7 and 10 at ½ MIC for 24 h at 37 °C. The supernatants were collected, mixed (1:1) with 0.05 M casein in phosphate buffer (2%) and NaOH (0.1 M) at pH 7.0, and incubated for 15 min at 37 °C. The reaction was stopped by adding 2 mL of 0.4 M trichloroacetic acid for 30 min at 25 °C. Any precipitates were removed, and the optical densities were detected at 660 nm. The assays were performed in triplicate and the obtained optical densities of tested strains treated with compounds 5, 7 and 10 were expressed as mean ± standard error of percentage change from untreated tested strains control (positive control) and LB (negative control). The protease inhibition percentages were calculated: (O.D control—O.D tested compounds)/O.D control.

Assay [8] concerns S. aureus. Briefly: Quantification of staphyloxanthin pigment. Format: cell-based, Staphylococcus aureus. Conditions: sub-MIC. How it is done:
Staphyloxanthin and intermediate carotenoids were extracted from S. aureus treated or untreated with compounds 5, 7 and 10 at sub-MIC as described. Bacterial cells were cultivated in TSB at 37 °C for 24 h, then cells were collected by centrifugation, and washed twice with phosphate-buffered saline (PBS). The obtained pellets were used to extract staphyloxanthin with methanol. The pellets (5 gm of) were resuspended in 20 mL methanol, and heated with gentle stirring at 55 °C in a water bath for 5 min. Then, the methanol extract liquids were cooled and centrifuged, and the absorbances of the produced staphyloxanthin were quantified spectrophotometrically at 450 nm (Biotek, Winooski, VT, USA). The experiment was repeated in triplicate, and the pigment absorbances in the presence of tested compounds were expressed as mean ± standard error of percentage change from untreated controls. The percentages of pigment production were calculated using the formula: (absorbance of control − absorbance in presence of tested compounds)/absorbance of control.

The next assay concerns P. aeruginosa. Description: Assay of hemolytic activity. As to conditions: sub-MIC. Format: cell-based, Pseudomonas aeruginosa. How it is done: (§2) The anti-virulence effects of compounds 5, 7 and 10 on hemolytic activity of tested P. aeruginosa and S. aureus strains were assessed as described previously. Optically adjusted bacterial cultures treated or untreated with tested compounds at sub-MIC were centrifuged, and 0.5 mL of supernatants were mixed with fresh 0.8 mL 2% erythrocyte (obtained from experimental animals) suspension in saline, and incubated for 2 h at 37 °C. A complete hemolysis positive control was prepared by addition of sodium dodecyl sulphate (SDS) to erythrocyte suspension, and negative control was prepared by incubation of erythrocytes in LB broth under the same conditions. After centrifugation, the absorbances of the lysed erythrocytes were measured at 540 nm by Biotek spectrofluorometer (Biotek, Winooski, VT, USA). The experiment was performed in triplicate, and the hemolysis of tested compound treated cultures were expressed as mean ± standard error of percentages compared with those obtained from untreated control cultures using the formula: (absorbance in presence or absence of tested compounds—absorbance of negative control)/(absorbance of positive control—absorbance of negative control).

Assay [9] deals with Aspergillus niger ATCC 16404. Briefly: MIC by agar dilution (antifungal). It is filed as cell-based. Conditions: ATCC16404, read-out: Minimum inhibitory concentration (MIC). As to the method:
as §1

The test system of assay [10] is Candida albicans ATCC 10231. Description: MIC by agar dilution (antifungal). It is filed as cell-based. Conditions: Candida albicans, ATCC10231, Candida albicans ATCC 10231, read-out: Minimum inhibitory concentration (MIC). As to the method: as §1
The test system of assay [11] is S. aureus. Description: Assay of hemolytic activity. Format: cell-based, Staphylococcus aureus. Conditions: sub-MIC. How it is done:
as §2

For another assay, the system named is Panc-1. Description: Caspase-Glo 3/7 apoptosis assay. It is filed as cell-based, human. Conditions: ½ IC50, IC50 or 2 ×IC50 for 6 h, vs untreated controls. How it is done:
Caspases play critical roles in apoptosis. The apoptotic effects of selected compounds 5, 7 and 10 on pancreatic cell line Panc-1 were tested by quantification of caspase 3/7 using Caspase-Glo 3/7 assay kit (Promega, Fitchburg, MA, USA) as previously described. Briefly, cells were treated with or without compounds 5, 7 and 10 (½ IC50, IC50, or 2 ×IC50) for 6 h. The prepared reagent Caspase-Glo 3/7 was added in equal volumes to cells, gently mixed, and incubated for 60 min at room temperature. The luminescence was measured, and the activity of caspase was presented as a percentage change from the untreated control.

As to `Cc1ccc(S(=O)(=O)Nc2ccccc2C2=N/C(=C/c3ccccc3)C(=O)O2)cc1` [Compound 9a, (E)-N-(2-(4-Benzylidene-5-oxo-4,5-dihydrooxazol-2-yl)phenyl)-4-methylbenzenesulfonamide], the MIC in assay [1] stood at 4 µg/mL (≈ 9.56 µM); in [2], 4 µg/mL (≈ 9.56 µM); in [3] it was 4 µg/mL (≈ 9.56 µM); in [4] it was 2 µg/mL (≈ 4.78 µM); in assay [5], 4 µg/mL (≈ 9.56 µM); in [6], 4 µg/mL (≈ 9.56 µM). Further, the MIC in assay [9] was 32 µg/mL (≈ 76.5 µM); in assay [10] it was 16 µg/mL (≈ 38.2 µM). In addition, the Production of protease entry in the assay on S. aureus [7] is recorded as “significantly reduced the production of protease”. The “Production of pigment staphyloxanthin” value with S. aureus [8] is “significantly decreased the production”. Also, the Hemolytic activity result in the assay with P. aeruginosa and in the assay on S. aureus [11] was “significantly diminished the hemolytic activity” each time. In the assay on Panc-1, the “Apoptotic effect, caspase 3/7 levels” value is “triggered apoptosis through increasing the amounts of activated caspases 3/7”.

For `COc1ccc(/C=C2/N=C(c3ccccc3NS(=O)(=O)c3ccc(C)cc3)OC2=O)cc1` [Compound 9b, (E)-N-(2-(4-(4-Methoxybenzylidene)-5-oxo-4,5-dihydrooxazol-2-yl)phenyl)-4-methylbenzenesulfonamide], the MIC in assay [1] amounted to 2 µg/mL (≈ 4.46 µM); in assay [2], 1 µg/mL (≈ 2.23 µM); in assay [3] it was 4 µg/mL (≈ 8.92 µM); in assay [4], 2 µg/mL (≈ 4.46 µM); in assay [5], 1 µg/mL (≈ 2.23 µM); in [6] it was 4 µg/mL (≈ 8.92 µM). The MIC in assay [9] and in [10] was over 32 µg/mL in each case. Besides, the Production of protease entry in the assay on S. aureus [7] is given as “significantly reduced the production of protease”. In addition, the “Production of pigment staphyloxanthin” value in the assay with S. aureus [8] is “significantly decreased the production”. Further, the Hemolytic activity result with P. aeruginosa and in the assay with S. aureus [11] was “significantly diminished the hemolytic activity” each time. Further, the “Apoptotic effect, caspase 3/7 levels” value in the assay with Panc-1 was “triggered apoptosis through increasing the amounts of activated caspases 3/7”.

In the case of `Cc1ccc(S(=O)(=O)Nc2ccccc2C2=N/C(=C/c3ccc([N+](=O)[O-])cc3)C(=O)O2)cc1` [Compound 9f, (E)-4-Methyl-N-(2-(4-(4-nitrobenzylidene)-5-oxo-4,5-dihydrooxazol-2-yl)phenyl)benzenesulfonamide], the MIC was 2 µg/mL (≈ 4.32 µM) in assay [1]; 2 µg/mL (≈ 4.32 µM) in assay [2]; 2 µg/mL (≈ 4.32 µM) in assay [3]; 4 µg/mL (≈ 8.63 µM) in assay [4]; 2 µg/mL (≈ 4.32 µM) in assay [5]; 2 µg/mL (≈ 4.32 µM) in [6]. Also, the MIC in assay [9] and in [10] was over 32 µg/mL throughout. The Production of protease entry in the assay on S. aureus [7] is recorded as “significantly reduced the production of protease”. For the same molecule, the “Production of pigment staphyloxanthin” value in the assay with S. aureus [8] is listed as “significantly decreased the production”. For the same molecule, the Hemolytic activity entry in the assay with P. aeruginosa and in the assay on S. aureus [11] was “significantly diminished the hemolytic activity” throughout. The “Apoptotic effect, caspase 3/7 levels” value with Panc-1 is “triggered apoptosis through increasing the amounts of activated caspases 3/7”.
